Tested on: Echinochloa crus-galli
Assay: Test Example 1: herbicidal effect test by treatment of rice paddy soil (immediately after seeding)
Assay type: in vivo
Conditions: 120 g/10a active ingredient, dry weight vs untreated area, 14 days after treatment
Procedure, shortened: (§1)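 Pre-emergence paddy water application, 120 g a.i./10 ares, applied immediately post-seeding into ~3 cm flood; glasshouse; duplicate pots; dry weight at 14 d → % inhibition = (1 − treated/untreated) × 100.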

| SMILES | Herbicidal rate (%) Echinochloa crus-galli [%] |
| --- | --- |
| CCCCCC(c1ccccc1)n1oc(=O)c(Cc2ccccc2NS(=O)(=O)C(F)(F)F)c1C (stereo not drawn) [Compound 1-215] | 100 |
| Cc1c(Cc2ccccc2N(S(=O)(=O)C(F)(F)F)S(=O)(=O)C(F)(F)F)c(=O)on1CC(C)(C)C [Compound 1-968] | 90 |
| Cc1c(Cc2ccccc2NS(=O)(=O)C(F)(F)F)c(=O)on1C(C)(C)C [Compound 1-101] | 90 |

Tested on: Scirpus juncoides
Assay: as above
Assay type: in vivo
Conditions: 120 g/10a active ingredient, dry weight vs untreated area, 14 days after treatment
Procedure, shortened: as §1

| SMILES | Herbicidal rate (%) Scirpus juncoides [%] |
| --- | --- |
| CCCCCC(c1ccccc1)n1oc(=O)c(Cc2ccccc2NS(=O)(=O)C(F)(F)F)c1C (stereo not drawn) [Compound 1-215] | 90 |
| Cc1c(Cc2ccccc2N(S(=O)(=O)C(F)(F)F)S(=O)(=O)C(F)(F)F)c(=O)on1CC(C)(C)C [Compound 1-968] | 90 |
| Cc1c(Cc2ccccc2NS(=O)(=O)C(F)(F)F)c(=O)on1C(C)(C)C [Compound 1-101] | 90 |

Tested on: broad leaf weeds (Lindernia pyxidaria and Monochoria vaginalis)
Assay: as above
Assay type: in vivo
Conditions: Lindernia pyxidaria, 120 g/10a active ingredient, dry weight vs untreated area, 14 days after treatment
Procedure, shortened: as §1

| SMILES | Herbicidal rate (%) Lindernia pyxidaria [%] |
| --- | --- |
| CCCCCC(c1ccccc1)n1oc(=O)c(Cc2ccccc2NS(=O)(=O)C(F)(F)F)c1C (stereo not drawn) [Compound 1-215] | 100 |
| Cc1c(Cc2ccccc2N(S(=O)(=O)C(F)(F)F)S(=O)(=O)C(F)(F)F)c(=O)on1CC(C)(C)C [Compound 1-968] | 90 |
| Cc1c(Cc2ccccc2NS(=O)(=O)C(F)(F)F)c(=O)on1C(C)(C)C [Compound 1-101] | 90 |

Same assay, conditions: Monochoria vaginalis, 120 g/10a active ingredient, dry weight vs untreated area, 14 days after treatment

| SMILES | Herbicidal rate (%) Monochoria vaginalis [%] |
| --- | --- |
| CCCCCC(c1ccccc1)n1oc(=O)c(Cc2ccccc2NS(=O)(=O)C(F)(F)F)c1C (stereo not drawn) [Compound 1-215] | 80 |
| Cc1c(Cc2ccccc2N(S(=O)(=O)C(F)(F)F)S(=O)(=O)C(F)(F)F)c(=O)on1CC(C)(C)C [Compound 1-968] | 90 |
| Cc1c(Cc2ccccc2NS(=O)(=O)C(F)(F)F)c(=O)on1C(C)(C)C [Compound 1-101] | 90 |

Tested on: Echinochloa crus-galli
Assay: Test Example 2: herbicidal effect test by treatment during growing period in paddy rice cultivation (seven days after seeding)
Assay type: in vivo
Conditions: 120 g/10a active ingredient, assessed 14 days after treatment, dry weight vs untreated area
Procedure, shortened: (§2)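 Seeds sown 0–1 cm deep in puddled, fertilised paddy soil with about 3 cm standing water in a glass greenhouse. Diluted emulsion dropped into the water seven days after seeding at 120 g active ingredient per 10 ares. Herbicidal rate (%) from mean dry weight vs untreated, duplicate, 14 days after treatment.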

| SMILES | Herbicidal rate (%) Echinochloa crus-galli [%] |
| --- | --- |
| CCCCCC(c1ccccc1)n1oc(=O)c(Cc2ccccc2NS(=O)(=O)C(F)(F)F)c1C (stereo not drawn) [Compound 1-215] | 90 |
| Cc1c(Cc2ccccc2N(S(=O)(=O)C(F)(F)F)S(=O)(=O)C(F)(F)F)c(=O)on1CC(C)(C)C [Compound 1-968] | 90 |
| Cc1c(Cc2ccccc2NS(=O)(=O)C(F)(F)F)c(=O)on1C(C)(C)C [Compound 1-101] | 90 |

Tested on: Scirpus juncoides
Assay: as above
Assay type: in vivo
Conditions: 120 g/10a active ingredient, assessed 14 days after treatment, dry weight vs untreated area
Procedure, shortened: as §2

| SMILES | Herbicidal rate (%) Scirpus juncoides [%] |
| --- | --- |
| CCCCCC(c1ccccc1)n1oc(=O)c(Cc2ccccc2NS(=O)(=O)C(F)(F)F)c1C (stereo not drawn) [Compound 1-215] | 90 |
| Cc1c(Cc2ccccc2N(S(=O)(=O)C(F)(F)F)S(=O)(=O)C(F)(F)F)c(=O)on1CC(C)(C)C [Compound 1-968] | 90 |
| Cc1c(Cc2ccccc2NS(=O)(=O)C(F)(F)F)c(=O)on1C(C)(C)C [Compound 1-101] | 90 |

Tested on: broad leaf weeds (Lindernia pyxidaria and Monochoria vaginalis)
Assay: as above
Assay type: in vivo
Conditions: Lindernia pyxidaria, 120 g/10a active ingredient, assessed 14 days after treatment, dry weight vs untreated area
Procedure, shortened: as §2

| SMILES | Herbicidal rate (%) Lindernia pyxidaria [%] |
| --- | --- |
| CCCCCC(c1ccccc1)n1oc(=O)c(Cc2ccccc2NS(=O)(=O)C(F)(F)F)c1C (stereo not drawn) [Compound 1-215] | 90 |
| Cc1c(Cc2ccccc2N(S(=O)(=O)C(F)(F)F)S(=O)(=O)C(F)(F)F)c(=O)on1CC(C)(C)C [Compound 1-968] | 90 |
| Cc1c(Cc2ccccc2NS(=O)(=O)C(F)(F)F)c(=O)on1C(C)(C)C [Compound 1-101] | 90 |

Same assay, conditions: Monochoria vaginalis, 120 g/10a active ingredient, assessed 14 days after treatment, dry weight vs untreated area

| SMILES | Herbicidal rate (%) Monochoria vaginalis [%] |
| --- | --- |
| CCCCCC(c1ccccc1)n1oc(=O)c(Cc2ccccc2NS(=O)(=O)C(F)(F)F)c1C (stereo not drawn) [Compound 1-215] | 80 |
| Cc1c(Cc2ccccc2N(S(=O)(=O)C(F)(F)F)S(=O)(=O)C(F)(F)F)c(=O)on1CC(C)(C)C [Compound 1-968] | 90 |
| Cc1c(Cc2ccccc2NS(=O)(=O)C(F)(F)F)c(=O)on1C(C)(C)C [Compound 1-101] | 90 |

Tested on: Amaranthus viridis
Assay: Test Example 3: herbicidal effect test by treatment of dry field farming soil (one day after seeding)
Assay type: in vivo
Conditions: 120 g/10a active ingredient, evaluated 14 days after treatment
Procedure, shortened: (§3)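 Alluvial dry-field soil in pots, top 1 cm mixed with 20 seeds per weed species. One day after seeding, the water-diluted emulsion was sprayed onto the soil surface at 100 L per 10 ares (120 g active ingredient per 10 ares). Duplicate pots; herbicidal rate (%) from plant dry weight versus untreated, 14 days after treatment.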

| SMILES | herbicidal rate, Amaranthus viridis [%] |
| --- | --- |
| CCCCCC(c1ccccc1)n1oc(=O)c(Cc2ccccc2NS(=O)(=O)C(F)(F)F)c1C (stereo not drawn) [Compound 1-215] | 40 |
| Cc1c(Cc2ccccc2N(S(=O)(=O)C(F)(F)F)S(=O)(=O)C(F)(F)F)c(=O)on1CC(C)(C)C [Compound 1-968] | 90 |
| Cc1c(Cc2ccccc2NS(=O)(=O)C(F)(F)F)c(=O)on1C(C)(C)C [Compound 1-101] | 90 |

Tested on: Chenopodium album
Assay: as above
Assay type: in vivo
Conditions: 120 g/10a active ingredient, evaluated 14 days after treatment
Procedure, shortened: as §3

| SMILES | herbicidal rate, Chenopodium album [%] |
| --- | --- |
| CCCCCC(c1ccccc1)n1oc(=O)c(Cc2ccccc2NS(=O)(=O)C(F)(F)F)c1C (stereo not drawn) [Compound 1-215] | 40 |
| Cc1c(Cc2ccccc2N(S(=O)(=O)C(F)(F)F)S(=O)(=O)C(F)(F)F)c(=O)on1CC(C)(C)C [Compound 1-968] | 90 |
| Cc1c(Cc2ccccc2NS(=O)(=O)C(F)(F)F)c(=O)on1C(C)(C)C [Compound 1-101] | 90 |

Tested on: Echinochloa crus-galli
Assay: as above
Assay type: in vivo
Conditions: 120 g/10a active ingredient, evaluated 14 days after treatment
Procedure, shortened: as §3

| SMILES | herbicidal rate, Echinochloa crus-galli [%] |
| --- | --- |
| CCCCCC(c1ccccc1)n1oc(=O)c(Cc2ccccc2NS(=O)(=O)C(F)(F)F)c1C (stereo not drawn) [Compound 1-215] | 50 |
| Cc1c(Cc2ccccc2N(S(=O)(=O)C(F)(F)F)S(=O)(=O)C(F)(F)F)c(=O)on1CC(C)(C)C [Compound 1-968] | 90 |
| Cc1c(Cc2ccccc2NS(=O)(=O)C(F)(F)F)c(=O)on1C(C)(C)C [Compound 1-101] | 90 |

Tested on: southern crabgrass
Assay: as above
Assay type: in vivo
Conditions: 120 g/10a active ingredient, evaluated 14 days after treatment
Procedure, shortened: as §3

| SMILES | herbicidal rate, southern crabgrass [%] |
| --- | --- |
| CCCCCC(c1ccccc1)n1oc(=O)c(Cc2ccccc2NS(=O)(=O)C(F)(F)F)c1C (stereo not drawn) [Compound 1-215] | 50 |
| Cc1c(Cc2ccccc2N(S(=O)(=O)C(F)(F)F)S(=O)(=O)C(F)(F)F)c(=O)on1CC(C)(C)C [Compound 1-968] | 90 |
| Cc1c(Cc2ccccc2NS(=O)(=O)C(F)(F)F)c(=O)on1C(C)(C)C [Compound 1-101] | 90 |

Tested on: Amaranthus viridis
Assay: Test Example 4: herbicidal effect test by treatment of leave and stem in dry field farming (seven days after seeding)
Assay type: in vivo
Conditions: 120 g/10a active ingredient; emulsion sprayed seven days after seeding; evaluated 14 days after treatment
Procedure, shortened: (§4)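 Weeds were seeded at 20 seeds per species into the top 1 cm of alluvial upland soil in pots, then sprayed 7 days after seeding with water-diluted emulsifiable concentrate at 100 L/10 a, giving 120 g active ingredient/10 a. Duplicate pots; herbicidal rate (%) was 14 days post-treatment, from dry weight versus untreated.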

| SMILES | herbicidal effect (herbicidal rate), Amaranthus viridis [%] |
| --- | --- |
| CCCCCC(c1ccccc1)n1oc(=O)c(Cc2ccccc2NS(=O)(=O)C(F)(F)F)c1C (stereo not drawn) [Compound 1-215] | 50 |
| Cc1c(Cc2ccccc2N(S(=O)(=O)C(F)(F)F)S(=O)(=O)C(F)(F)F)c(=O)on1CC(C)(C)C [Compound 1-968] | 40 |
| Cc1c(Cc2ccccc2NS(=O)(=O)C(F)(F)F)c(=O)on1C(C)(C)C [Compound 1-101] | 40 |

Tested on: Chenopodium album
Assay: as above
Assay type: in vivo
Conditions: 120 g/10a active ingredient; emulsion sprayed seven days after seeding; evaluated 14 days after treatment
Procedure, shortened: as §4

| SMILES | herbicidal effect (herbicidal rate), Chenopodium album [%] |
| --- | --- |
| CCCCCC(c1ccccc1)n1oc(=O)c(Cc2ccccc2NS(=O)(=O)C(F)(F)F)c1C (stereo not drawn) [Compound 1-215] | 40 |
| Cc1c(Cc2ccccc2N(S(=O)(=O)C(F)(F)F)S(=O)(=O)C(F)(F)F)c(=O)on1CC(C)(C)C [Compound 1-968] | 40 |
| Cc1c(Cc2ccccc2NS(=O)(=O)C(F)(F)F)c(=O)on1C(C)(C)C [Compound 1-101] | 40 |

Tested on: Echinochloa crus-galli
Assay: as above
Assay type: in vivo
Conditions: 120 g/10a active ingredient; emulsion sprayed seven days after seeding; evaluated 14 days after treatment
Procedure, shortened: as §4

| SMILES | herbicidal effect (herbicidal rate), Echinochloa crus-galli [%] |
| --- | --- |
| CCCCCC(c1ccccc1)n1oc(=O)c(Cc2ccccc2NS(=O)(=O)C(F)(F)F)c1C (stereo not drawn) [Compound 1-215] | 40 |
| Cc1c(Cc2ccccc2N(S(=O)(=O)C(F)(F)F)S(=O)(=O)C(F)(F)F)c(=O)on1CC(C)(C)C [Compound 1-968] | 90 |
| Cc1c(Cc2ccccc2NS(=O)(=O)C(F)(F)F)c(=O)on1C(C)(C)C [Compound 1-101] | 90 |

Tested on: southern crabgrass
Assay: as above
Assay type: in vivo
Conditions: 120 g/10a active ingredient; emulsion sprayed seven days after seeding; evaluated 14 days after treatment
Procedure, shortened: as §4

| SMILES | herbicidal effect (herbicidal rate), southern crabgrass [%] |
| --- | --- |
| CCCCCC(c1ccccc1)n1oc(=O)c(Cc2ccccc2NS(=O)(=O)C(F)(F)F)c1C (stereo not drawn) [Compound 1-215] | 50 |
| Cc1c(Cc2ccccc2N(S(=O)(=O)C(F)(F)F)S(=O)(=O)C(F)(F)F)c(=O)on1CC(C)(C)C [Compound 1-968] | 90 |
| Cc1c(Cc2ccccc2NS(=O)(=O)C(F)(F)F)c(=O)on1C(C)(C)C [Compound 1-101] | 90 |

Source: patent publication US11109593B2, “Isoxazolin-5-one derivative and herbicide containing same as active ingredient” (HOKKO CHEMICAL INDUSTRY CO., LTD., priority 2017, dated 2021)
